Measured values: ChEMBL document CHEMBL4808169, “Discovery of Potent and Fast-Acting Antimalarial Bis-1,2,4-triazines” (J Med Chem, 2021)

Key:
[1] = Clearance in Swiss mouse plasma at 2.7 mg/kg, iv measured up to 24 hrs by LC-MS analysis; assay type: ADME, organism-based
[2] = Drug metabolism in human liver microsomes assessed as oxygenated metabolite M+16(2) formation by LC-MS/MS(CID) analysis; assay type: ADME, Microsome
[3] = Drug metabolism in mouse hepatocytes assessed as oxygenated metabolite N-methyl-2-(3'-propoxy-5,5'-bi(1,2,4-triazin)-3-yloxy)ethanamine oxide formation by LC-MS/MS(CID) analysis; assay type: ADME, cell-based, Hepatocyte
[4] = Drug metabolism in Sprague-Dawley rat feces assessed as oxygenated metabolite N-methyl-2-(3'-propoxy-5,5'-bi(1,2,4-triazin)-3-yloxy)ethanamine oxide formation at 3 mg/kg, iv by high-resolution mass spectrometry; assay type: ADME, organism-based; conditions: in vivo
[5] = Drug metabolism in Sprague-Dawley rat feces assessed as oxygenated metabolite M+16(2) formation at 10 mg/kg, po by high-resolution mass spectrometry; assay type: ADME, organism-based; conditions: in vivo
[6] = Drug metabolism in Sprague-Dawley rat feces assessed as M-32 metabolite formation at 3 mg/kg, iv by high-resolution mass spectrometry; assay type: ADME, organism-based; conditions: in vivo
[7] = Drug metabolism in mouse hepatocytes assessed as oxygenated metabolite M+16(1) formation by LC-MS/MS(CID) analysis; assay type: ADME, cell-based, Hepatocyte
[8] = Drug metabolism in human liver microsomes assessed as formation of cleavage product M-69 in presence of NADPH by LC-MS/MS(CID) analysis; assay type: ADME, Microsome
[9] = Drug metabolism in rat hepatocytes assessed as glucuronides/sulfates metabolite formation by LC-MS/MS(CID) analysis; assay type: ADME, cell-based, Hepatocyte
[10] = Drug metabolism in rat liver microsomes assessed as formation of cleavage product M-69 by LC-MS/MS(CID) analysis; assay type: ADME, Microsome
[11] = Metabolic stability of compound in Swiss mouse blood assessed as parent compound loss measured over 4 hrs by LC-MS analysis; assay type: ADME, tissue-based; conditions: whole blood, read-out: Drug degradation
[12] = Drug metabolism in Sprague-Dawley rat plasma assessed as M-69 metabolite formation at 10 mg/kg, po by high-resolution mass spectrometry; assay type: ADME, organism-based; conditions: in vivo
[13] = Oral bioavailability in Swiss mouse at 27 mg/kg measured up to 24 hrs; assay type: ADME, organism-based; conditions: in vivo
[14] = biological target: Cytochrome P450 2C9 (Homo sapiens, UniProt P11712); test: Inhibition of CYP2C9 in human liver microsomes assessed as reduction in […] activity by . high-pressure liquid chromatography-tandem mass spectrometry; assay type: ADME
Chain of Cytochrome P450 2C9 (P11712 whole entry): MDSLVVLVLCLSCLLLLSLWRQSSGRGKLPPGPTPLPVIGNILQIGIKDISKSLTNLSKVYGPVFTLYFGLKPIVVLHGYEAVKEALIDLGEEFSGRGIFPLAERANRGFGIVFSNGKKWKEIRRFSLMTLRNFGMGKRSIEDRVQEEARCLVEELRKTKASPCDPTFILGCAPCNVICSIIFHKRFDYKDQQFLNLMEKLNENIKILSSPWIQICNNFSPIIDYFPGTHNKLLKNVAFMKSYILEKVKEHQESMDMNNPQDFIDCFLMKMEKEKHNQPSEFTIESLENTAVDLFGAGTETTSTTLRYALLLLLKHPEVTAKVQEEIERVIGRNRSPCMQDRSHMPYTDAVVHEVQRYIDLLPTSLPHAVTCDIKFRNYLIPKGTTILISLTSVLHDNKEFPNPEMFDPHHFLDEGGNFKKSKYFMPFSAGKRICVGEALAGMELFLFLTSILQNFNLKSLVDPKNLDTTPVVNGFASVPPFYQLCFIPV

[15] = Clearance in Sprague-Dawley rat plasma at 3 mg/kg, iv measured up to 24 hrs by LC-MS analysis; assay type: ADME, organism-based
[16] = Ratio of drug level in blood to plasma in Sprague-Dawley rat at 3 mg/kg, iv administered as infusion for 10 mins measured after 1 hr by LC-MS analysis; assay type: ADME, organism-based; conditions: whole blood and plasma
[17] = Drug metabolism in human liver microsomes assessed as oxygenated metabolite N-methyl-2-(3'-propoxy-5,5'-bi(1,2,4-triazin)-3-yloxy)ethanamine oxide formation by LC-MS/MS(CID) analysis; assay type: ADME, Microsome
[18] = Drug metabolism in human liver microsomes assessed as oxygenated metabolite M+16(1) formation by LC-MS/MS(CID) analysis; assay type: ADME, Microsome
[19] = Drug metabolism in mouse hepatocytes assessed as 3'-propoxy-5,5'-bi(1,2,4-triazin)-3-ol formation by LC-MS/MS(CID) analysis; assay type: ADME, cell-based, Hepatocyte
[20] = Drug metabolism in Sprague-Dawley rat urine assessed as oxygenated metabolite N-methyl-2-(3'-propoxy-5,5'-bi(1,2,4-triazin)-3-yloxy)ethanamine oxide formation at 10 mg/kg, po by high-resolution mass spectrometry; assay type: ADME, organism-based; conditions: in vivo
[21] = Drug metabolism in Sprague-Dawley rat feces assessed as oxygenated metabolite M+16(1) formation at 10 mg/kg, po by high-resolution mass spectrometry; assay type: ADME, organism-based; conditions: in vivo
[22] = Drug metabolism in human hepatocytes assessed as glucuronides/sulfates metabolite formation by LC-MS/MS(CID) analysis; assay type: ADME, cell-based, Hepatocyte
[23] = Drug metabolism in Sprague-Dawley rat urine assessed as N-methyl-2-(3'-propoxy-5,5'-bi(1,2,4-triazin)-3-yloxy)ethanamine formation at 3 mg/kg, iv by high-resolution mass spectrometry; assay type: ADME, organism-based; conditions: in vivo
[24] = Drug metabolism in Sprague-Dawley rat feces assessed as N-methyl-2-(3'-propoxy-5,5'-bi(1,2,4-triazin)-3-yloxy)ethanamine formation at 10 mg/kg, po by high-resolution mass spectrometry; assay type: ADME, organism-based; conditions: in vivo
[25] = Drug concentration in blood of NOD-SCID 1L2Rgamma mouse infected with Plasmodium falciparum 3D70087/N9 at 50 mg/kg, po measured at 24 hrs by LC-MS/MS analysis; assay type: ADME, organism-based; conditions: in vivo
[26] = Drug metabolism in rat liver microsomes assessed as oxygenated metabolite N-methyl-2-(3'-propoxy-5,5'-bi(1,2,4-triazin)-3-yloxy)ethanamine oxide formation by LC-MS/MS(CID) analysis; assay type: ADME, Microsome
[27] = Drug metabolism in human liver microsomes assessed as formation of cleavage product M-69 by LC-MS/MS(CID) analysis; assay type: ADME, Microsome
[28] = Drug metabolism in Sprague-Dawley rat urine assessed as oxygenated metabolite M+16(1) formation at 3 mg/kg, iv by high-resolution mass spectrometry; assay type: ADME, organism-based; conditions: in vivo
[29] = Drug metabolism in mouse liver microsomes assessed as N-methyl-2-(3'-propoxy-5,5'-bi(1,2,4-triazin)-3-yloxy)ethanamine formation by LC-MS/MS(CID) analysis; assay type: ADME, Microsome
[30] = Drug metabolism in human hepatocytes assessed as N-methyl-2-(3'-propoxy-5,5'-bi(1,2,4-triazin)-3-yloxy)ethanamine formation by LC-MS/MS(CID) analysis; assay type: ADME, cell-based, Hepatocyte
[31] = Drug metabolism in human hepatocytes assessed as oxygenated metabolite N-methyl-2-(3'-propoxy-5,5'-bi(1,2,4-triazin)-3-yloxy)ethanamine oxide formation by LC-MS/MS(CID) analysis; assay type: ADME, cell-based, Hepatocyte
[32] = Cmax in Swiss mouse plasma at 2.8 mg/kg, po measured up to 24 hrs by LC-MS analysis; assay type: ADME, organism-based; parameters: route oral, dose 2.8 mg/kg, time <=24
[33] = Drug metabolism in Sprague-Dawley rat feces assessed as N-methyl-2-(3'-propoxy-5,5'-bi(1,2,4-triazin)-3-yloxy)ethanamine formation at 3 mg/kg, iv by high-resolution mass spectrometry; assay type: ADME, organism-based; conditions: in vivo
[34] = Selectivity ratio of CC50 for HEK293 cells to IC50 for Plasmodium falciparum 3D7; assay type: toxicity; conditions: human, read-out: Ratio CC50/IC50
[35] = Drug metabolism in mouse hepatocytes assessed as glucuronides/sulfates metabolite formation by LC-MS/MS(CID) analysis; assay type: ADME, cell-based, Hepatocyte
[36] = Drug metabolism in Sprague-Dawley rat urine assessed as N-methyl-2-(3'-propoxy-5,5'-bi(1,2,4-triazin)-3-yloxy)ethanamine formation at 10 mg/kg, po by high-resolution mass spectrometry; assay type: ADME, organism-based; conditions: in vivo
[37] = Protein binding in rat plasma measured after 6 hrs by LC-MS analysis based equilibrium dialysis method; assay type: ADME, cell-free; conditions: read-out: PPB (converted)
[38] = Drug metabolism in Sprague-Dawley rat feces assessed as oxygenated metabolite N-methyl-2-(3'-propoxy-5,5'-bi(1,2,4-triazin)-3-yloxy)ethanamine oxide formation at 10 mg/kg, po by high-resolution mass spectrometry; assay type: ADME, organism-based; conditions: in vivo
[39] = Apparent permeability across basolateral side to apical side in human Caco2 cells measured over 120 mins by LC-MS analysis; assay type: ADME, cell-based; conditions: Caco-2

clearance [1]: 406 mL/min/kg
Drug metabolism [2]: Metabolite_Detected
Drug metabolism [3]: Metabolite_Detected
Drug metabolism [4]: Metabolite_Detected
Drug metabolism [5]: Metabolite_Detected
Drug metabolism [6]: Metabolite_Detected
Drug metabolism [7]: Metabolite_Detected
Drug metabolism [8]: Metabolite_Detected
Drug metabolism [9]: Metabolite_Notdetected
Drug metabolism [10]: Metabolite_Detected
metabolised at 4 h [11]: 23%
Drug metabolism [12]: Metabolite_Detected
bioavailability [13]: 12%
IC50 [14]: > 20 µM
clearance [15]: 249 mL/min/kg
blood plasma ratio at 10 min [16]: 1.3
Drug metabolism [17]: Metabolite_Detected
Drug metabolism [18]: Metabolite_Detected
Drug metabolism [19]: Metabolite_Detected
Drug metabolism [20]: Metabolite_Detected
Drug metabolism [21]: Metabolite_Detected
Drug metabolism [22]: Metabolite_Notdetected
Drug metabolism [23]: Metabolite_Detected
Drug metabolism [24]: Metabolite_Detected
Drug uptake [25]: < 1e-05 mg/mL
Drug metabolism [26]: Metabolite_Detected
Drug metabolism [27]: Metabolite_Detected
Drug metabolism [28]: Metabolite_Detected
Drug metabolism [29]: Metabolite_Detected
Drug metabolism [30]: Metabolite_Notdetected
Drug metabolism [31]: Metabolite_Detected
Cmax [32]: 16.8 nM
Drug metabolism [33]: Metabolite_Detected
Drug metabolism [35]: Metabolite_Notdetected
Drug metabolism [36]: Metabolite_Detected
fraction unbound at 6 h [37]: 0.78
Drug metabolism [38]: Metabolite_Detected
Papp B→A at 2 h [39]: 46 ×10⁻⁶ cm/s
Structure (SMILES): CCCOc1nncc(-c2cnnc(OCCN(C)C)n2)n1
selectivity ratio [34]: > 1000
